Reference: patent US20260041693A1, “COMBINATION THERAPY OF CDK7 INHIBITORS WITH OTHER ANTI-CANCER THERAPIES” (QURIENT CO., LTD., priority 2022, published 2026)

Experiments:
RENCA cells = experiment: Cell viability assay (CellTiter-Glo); format: cell-based; conditions: Mus musculus, 72 hours, read-out: IC50 of RENCA cell growth/viability
Procedure: RENCA renal adenocarcinoma were treated with various concentrations of compound 47 for 72 hours. Cell viability was measured using the CellTiter-Glo assay system (Promega). Luminescence units were normalized to those of untreated cells and are presented as the percentage of cell viability. IC50 was calculated using the dose-response curve generated by GraphPad Prism.

CDK7 = molecular target: T1, CDK7 (Mus musculus, UniProt Q03147); experiment: Target occupancy assay (Bio-compound 3 pull-down, anti-CDK7 blot); format: cell-based; conditions: RENCA cells treated 4 hours; lysate incubated with 1 μM Bio-compound 3
T1 construct: endogenous in cells; host or cells: RENCA cells
T1 sequence (Q03147 2-346 limits assumed): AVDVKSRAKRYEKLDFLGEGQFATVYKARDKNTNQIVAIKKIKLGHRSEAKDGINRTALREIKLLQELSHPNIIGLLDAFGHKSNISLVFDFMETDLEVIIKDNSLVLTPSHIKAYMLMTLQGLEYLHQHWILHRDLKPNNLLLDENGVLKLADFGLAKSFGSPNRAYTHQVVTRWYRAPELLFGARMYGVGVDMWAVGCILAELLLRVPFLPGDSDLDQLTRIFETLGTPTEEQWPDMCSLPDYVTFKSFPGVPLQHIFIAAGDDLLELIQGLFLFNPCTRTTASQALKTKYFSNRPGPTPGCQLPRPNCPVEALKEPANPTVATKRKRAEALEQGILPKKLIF
T1 sequence (Q61458 1-323 partner): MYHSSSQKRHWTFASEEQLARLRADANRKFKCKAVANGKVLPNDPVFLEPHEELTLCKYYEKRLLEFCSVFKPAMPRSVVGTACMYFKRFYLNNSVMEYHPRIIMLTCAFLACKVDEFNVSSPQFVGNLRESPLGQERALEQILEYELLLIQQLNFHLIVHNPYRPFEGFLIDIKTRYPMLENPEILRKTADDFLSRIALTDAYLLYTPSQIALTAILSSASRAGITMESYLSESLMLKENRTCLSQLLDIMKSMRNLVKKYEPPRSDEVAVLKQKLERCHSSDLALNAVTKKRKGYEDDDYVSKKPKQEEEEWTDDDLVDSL
T1 sequence (P51949 1-309 partner): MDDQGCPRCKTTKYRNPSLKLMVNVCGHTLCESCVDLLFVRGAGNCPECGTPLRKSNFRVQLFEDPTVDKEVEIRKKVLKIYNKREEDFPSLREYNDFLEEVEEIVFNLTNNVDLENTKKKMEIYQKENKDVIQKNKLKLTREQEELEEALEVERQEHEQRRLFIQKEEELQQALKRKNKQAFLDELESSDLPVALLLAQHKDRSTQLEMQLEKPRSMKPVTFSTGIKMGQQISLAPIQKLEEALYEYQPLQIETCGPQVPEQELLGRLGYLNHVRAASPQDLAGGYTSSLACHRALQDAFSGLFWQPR
Procedure: RENCA cells were treated with various concentrations of compound 47 for 4 hours. Cells were washed with ice-cold PBS twice and then lysed with ice-cold lysis buffer (0.025M Tris, 0.15M NaCl, 0.001M EDTA, 1% NP-40, 5% glycerol, pH 7.4) with protease and phosphatase cocktails (Sigma-Aldrich). Lysed cells were centrifuged at 12,000 rpm at 4′C for 10 minutes and then the supernatant was collected. Protein concentrations were determined using a BCA protein quantification kit (Thermo Fisher Scientific, #23227). Equal amounts of protein were incubated with 1 μM of biotinylated compound 3 (Bio-compound 3; biotinylated analog of compound 47) at 4′C overnight and then immunoprecipitated with streptavidin-agarose bead. Pull-downed proteins were eluted, loaded to SDS-PAGE, transferred to a PVDF membrane (MilliporeSigma), and then treated with anti-CDK7 antibody. CDK7 protein was detected by HRP-conjugated secondary antibody. The image was obtained by ImageQuant™ LAS4000.

[1] = tested on: phosphorylated form of H2AX (Ser139) in RENCA cells; experiment: Western blot analysis of phosphorylated H2AX; format: cell-based, mouse; conditions: 48 hours
Procedure: RENCA cells were treated with various concentrations of compound 47 in 5% CO2 at 37′C for 48 hours. Cells were washed with ice-cold PBS twice and lysis buffer was added. Cells were collected and kept on the ice for 30 min. Lysed cells were centrifuged at 12,000 rpm at 4′C for 10 minutes, and then the supernatant was collected. Protein concentrations were quantified using a BCA protein Quantification kit. Equal amounts of protein were fractionated by SDS-PAGE, transferred to a PVDF membrane, and then treated with anti-phospho-H2AX (Ser139) antibody. The phosphorylated form of H2AX protein was detected by HRP-conjugated secondary antibody and the signal was obtained with Super Signal Western blot enhancer. The image was acquired by ImageQuant™ LAS 4000.

RENCA tumor = experiment: RENCA syngeneic renal tumor mouse model; format: in vivo, BALB/c mice; conditions: compound 47 10 mg/kg i.p. every day; anti-PD-1 antibody 10 mg/kg i.p. twice a week; alone or both
Procedure: RENCA cells (1×10^5) were subcutaneously implanted in the right flank of BALB/c mice. Tumor-bearing mice were randomized and then treated with compound 47 (10 mg/kg, intraperitoneally every day), anti-PD-1 antibody (10 mg/kg, intraperitoneally twice a week, clone: RMP1-14, Bio X Cell), or both compound 47 and anti-PD-1 antibody when the average tumor volume reached 31 mm^3 (N=7 or 8 per group). Control mice were treated with vehicle and rat IgG2a isotype control antibody (clone: 2A3, Bio X Cell). Tumor volume and body weight were measured twice per week.

OVCAR3 tumor = experiment: OVCAR3 high-grade serous ovarian cancer cell line-derived xenograft model; format: in vivo, BALB/c nude mice; conditions: compound 47 3 mg/kg i.p. every day; olaparib 100 mg/kg orally every day; alone or both
Procedure: (§1) OVCAR3 cells (1×10^7) mixed with matrigel (50:50) were subcutaneously implanted in the right flank of female BALB/c nude mice. Tumor-bearing mice were randomized and treated with compound 47 (3 mg/kg, intraperitoneally every day), olaparib (100 mg/kg, orally every day), or both compound 47 and olaparib when the average tumor volume reached 173 mm^3 (N=8 per group). Tumor volume and body weight were measured twice per week.

DU145 tumor = experiment: DU145 castration-resistant prostate cancer cell line-derived xenograft model; format: in vivo, BALB/c nude mice; conditions: compound 47 3 mg/kg i.p. every day; docetaxel 15 mg/kg i.p. once a week; alone or both
Procedure: DU145 cells (1×10^7) mixed with matrigel (50:50) were subcutaneously implanted in the right flank of male BALB/c nude mice. Tumor-bearing mice were randomized and then treated with compound 47 (3 mg/kg, intraperitoneally every day), docetaxel (15 mg/kg, intraperitoneally once a week), or both compound 47 and docetaxel when the average tumor volume reached 154 mm^3 (N=8 per group). Tumor volume and body weight were measured twice per week.

MCF7 tumor = experiment: MCF7 human breast adenocarcinoma xenograft model; format: in vivo, BALB/c nude mice; conditions: compound 47 3 mg/kg i.p. every day; fulvestrant 2.5 mg/dose s.c. every day; alone or both
Procedure: as §1, with “MCF7” for “OVCAR3”, “fulvestrant (2.5 mg/dose, subcutaneously” for “olaparib (100 mg/kg, orally”, “fulvestrant” for “olaparib”, “117” for “173”, “week. […] On day 28, tumor volume of the compound 47 with fulvestrant combination group was reduced compared to the compound 47 alone group or the fulvestrant treatment group.” for “week.”

[2] = tested on: g-H2AX foci in OVCAR3 cells; experiment: g-H2AX foci imaging in OVCAR3 cells after cisplatin; format: cell-based, human; conditions: 100 nM cisplatin 24 hours, wash, then Compound 47, 24, 48 and 72 hours
Procedure: OVCAR3 cells were treated with DMSO or 100 nM of cisplatin for 24 hours. Cells were then washed with culture media and treated with Compound 47 at various concentrations. Cells were collected 24, 48 and 72 hours after cisplatin wash and then stained with 4′,6-diamidino-2-phenylindole (DAPI) and anti-phospho-histone H2AX ([…]). g-H2AX foci inside the nucleus were identified by Alexa-568 staining. Fluorescence images of g-H2AX foci were captured using a confocal imaging system, CQ1 (×40 objective).

[3] = tested on: g-H2AX or 53BP1 foci in PC3 cells; experiment: g-H2AX / 53BP1 foci imaging in PC3 cells after X-ray irradiation; format: cell-based, human; conditions: Compound 47 1 hour then X-ray 8, 4 or 2 Gy, 24 hours after irradiation
Procedure: PC3 cells were treated with DMSO or various concentrations of Compound 47 for 1 hour. Cells were then irradiated with X-ray at set of 225 KV, 17.7 mA for 5 min using a Faxitron Specimen Radiography System (8 Gy, 4 Gy and 2 Gy irradiation, FIGS. 7A-7C, and 7D-7F, respectively). Cells were collected at 1-, 4-, 6-, 24- and 48-hour post X-ray irradiation and stained with HOECHST and anti-phospho-histone H2AX ([…]) or 53BP1. g-H2AX or 53BP1 foci inside the nucleus were identified with Alexa Flour488. Fluorescence images of the foci were obtained using Opera Phenix 3 High-content screening system (×40 objective) and the average granule number f SD of g-H2AX (FIG. 7A to 7C) or of 53BP1 (FIG. 7D to 7F) per cell was determined using MetaXpress software.

Row | SMILES | TGI (OVCAR3 tumor) [%] | TGI (DU145 tumor) [%] | TGI (MCF7 tumor) [%] | also measured
1 | C=C(F)C(=O)Nc1ccc2c(-c3ccccc3CNc3nc(NC[C@H]4CCNC[C@@H]4O)nc4c(C(C)C)cnn34)nccc2c1 [Compound 47] | 36 | 61 | 81 | IC50 (RENCA cells): 0.02 µM; CDK7 occupancy (CDK7): in a dose dependent manner; phosphorylation of H2AX at Serine-139 [1]: induced phosphorylation of H2AX at the Serine-139 residue in a dose dependent manner; tumor growth inhibition (TGI) (RENCA tumor): 50.2%; percentage of g-H2AX-positive cells (g-H2AX foci) [2]: increased the percentage of g-H2AX foci in a time- and dose-dependent manner; DNA damage sustaining effect (granule number of g-H2AX or 53BP1 per cell) [3]: significant DNA damage sustaining effects
2 | O=C(c1cc(Cc2n[nH]c(=O)c3ccccc23)ccc1F)N1CCN(C(=O)C2CC2)CC1 [olaparib, reference compound] | 38 |  |  | 
3 | C[C@]12CC[C@@H]3c4ccc(O)cc4C[C@@H](CCCCCCCCC[S+]([O-])CCCC(F)(F)C(F)(F)F)[C@H]3[C@@H]1CC[C@@H]2O (stereo partly drawn) [fulvestrant, reference compound] |  |  | 81 | 
4 | CC(=O)O[C@@]12CO[C@@H]1C[C@H](O)[C@@]1(C)C(=O)[C@H](O)C3=C(C)[C@@H](OC(=O)[C@H](O)[C@@H](NC(=O)OC(C)(C)C)c4ccccc4)C[C@@](O)([C@@H](OC(=O)c4ccccc4)[C@H]21)C3(C)C [docetaxel, reference compound] |  | 25 |  | 
